Non-standard residues stand in square brackets, D forms with d. Residues, ends and D or L forms follow the SMILES beside them. No end group written: not given here.

The target of one assay is T1, Herpes Simplex Virus Ribonucleotide Reductase (HSV RR) (Human herpesvirus 2, UniProt P89462).
T1 construct: HSV RR was purified by Baby Hamster Kidney cells that were cultured with HSV2 Strain 186; made in house; host or cells: Baby Hamster Kidney cells infected with HSV2 Strain 186; crude enzyme per Huszar et al., then hydroxyapatite chromatography
T1 sequence (P89462 whole entry): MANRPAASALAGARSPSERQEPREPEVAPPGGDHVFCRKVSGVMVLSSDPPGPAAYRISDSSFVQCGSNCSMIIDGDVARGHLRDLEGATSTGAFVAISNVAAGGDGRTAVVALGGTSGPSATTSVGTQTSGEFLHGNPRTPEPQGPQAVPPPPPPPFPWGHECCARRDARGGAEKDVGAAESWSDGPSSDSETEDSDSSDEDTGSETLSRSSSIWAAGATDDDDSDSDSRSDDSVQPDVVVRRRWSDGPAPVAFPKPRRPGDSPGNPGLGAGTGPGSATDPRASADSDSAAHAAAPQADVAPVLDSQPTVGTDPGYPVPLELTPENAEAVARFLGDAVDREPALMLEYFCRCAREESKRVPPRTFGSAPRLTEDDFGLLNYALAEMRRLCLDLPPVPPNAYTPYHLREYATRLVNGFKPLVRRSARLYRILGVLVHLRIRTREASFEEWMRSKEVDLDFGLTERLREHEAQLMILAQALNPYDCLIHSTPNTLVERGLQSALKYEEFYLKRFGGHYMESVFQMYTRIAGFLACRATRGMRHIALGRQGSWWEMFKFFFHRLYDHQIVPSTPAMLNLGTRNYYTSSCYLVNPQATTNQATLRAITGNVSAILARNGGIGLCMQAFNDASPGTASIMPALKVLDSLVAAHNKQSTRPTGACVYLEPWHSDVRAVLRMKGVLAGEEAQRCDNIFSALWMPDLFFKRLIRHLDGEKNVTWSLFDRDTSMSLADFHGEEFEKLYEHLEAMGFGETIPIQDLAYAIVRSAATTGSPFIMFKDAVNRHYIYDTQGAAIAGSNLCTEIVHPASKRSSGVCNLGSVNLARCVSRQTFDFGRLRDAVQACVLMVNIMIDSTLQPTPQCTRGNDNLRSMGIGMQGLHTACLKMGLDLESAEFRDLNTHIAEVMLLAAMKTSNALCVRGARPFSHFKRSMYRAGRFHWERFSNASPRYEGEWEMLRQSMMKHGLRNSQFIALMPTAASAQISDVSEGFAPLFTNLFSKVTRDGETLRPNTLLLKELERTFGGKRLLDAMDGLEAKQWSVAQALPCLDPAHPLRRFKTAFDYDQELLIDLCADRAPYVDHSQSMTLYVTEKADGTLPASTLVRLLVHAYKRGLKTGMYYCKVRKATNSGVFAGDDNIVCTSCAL
Kind of assay: Assay of inhibition of HSV RR (reduction of tritiated cytidine-diphosphate to deoxyribo-cytidinediphosphate). It counts as biochemical, HSV2 Strain 186.
Settings: not given
As for the experimental part: After infection, cells were harvested and lysed.
HSV RR activity was determined as the ability of the enzyme to catalyze the reduction of tritiated cytidine-diphosphate to deoxyribo-cytidinediphosphate in 30 minutes at 37° C. in the presence of dithiothreitol and MgCl2. Activity of oligopeptide inhibitors was determined by adding them to the reaction mix at the beginning of the incubation. Enzyme was not preincubated with inhibitor.
These were analyzed for amino acid composition and in some cases sequenced. Dry peptides were resuspended in 100 mM HEPES (pH 8.0) at about 2mM, relyophilized, and stored in aliquots at -80° C. Immediately prior to use they were rehydrated with distilled H2 O and centrifuged to remove any undissolved peptide.
The compound `CC(C)C[C@H](NC(=O)[C@H](CC(=O)O)NC(=O)[C@H](CC(N)=O)NC(=O)[C@@H](NC(=O)[C@@H](NC(=O)[C@H](C)NC(=O)CNC(=O)[C@@H](C)NC(=O)[C@@H](N)Cc1ccc(O)cc1)C(C)C)C(C)C)C(=O)O` [Y dA G A V V N D L] had an IC50 of 210 µM.

Still in this assay, the particulars now being: 30 minutes at 37° C., dithiothreitol and MgCl2; enzyme not preincubated with inhibitor; read-out: IC50 (μM concentration of peptide producing 50% inhibition of enzyme activity).
With `CC(C)C[C@H](NC(=O)[C@H](CC(=O)O)NC(=O)[C@H](CC(N)=O)NC(=O)[C@@H](NC(=O)[C@@H](NC(=O)[C@@H](C)NC(=O)CNC(=O)[C@H](C)NC(=O)[C@@H](N)Cc1ccc(O)cc1)C(C)C)C(C)C)C(=O)O` [Y A G dA V V N D L], the IC50 worked out at 72 µM.
With `CC(C)C[C@H](NC(=O)[C@H](CC(=O)O)NC(=O)[C@@H](CC(N)=O)NC(=O)[C@@H](NC(=O)[C@@H](NC(=O)[C@H](C)N)C(C)C)C(C)C)C(=O)O` [A V V dN D L] (H-AVV[dN]DL-OH), the IC50 came out at 460 µM.
In the case of `CC(C)C[C@H](NC(=O)[C@H](CC(=O)O)NC(=O)[C@@H](CC(N)=O)NC(=O)[C@@H](NC(=O)[C@@H](NC(=O)[C@H](C)NC(=O)CNC(=O)[C@H](C)NC(=O)[C@@H](N)Cc1ccc(O)cc1)C(C)C)C(C)C)C(=O)O` [Y A G A V V dN D L], the IC50 is greater than 620 µM.
For `CC(C)C[C@H](NC(=O)[C@H](CC(=O)O)NC(=O)[C@H](CC(N)=O)NC(=O)[C@@H](NC(=O)[C@@H](NC(=O)[C@H](N)Cc1ccc(O)cc1)C(C)C)C(C)C)C(=O)O` [dY V V N D L] (H-[dY]VVNDL-OH), the IC50 came out at 30 µM.
In the case of `CC(C)C[C@H](NC(=O)[C@H](CC(=O)O)NC(=O)[C@H](CC(N)=O)NC(=O)[C@H](NC(=O)[C@@H](NC(=O)[C@H](C)N)C(C)C)C(C)C)C(=O)O` [A V dV N D L] (H-AV[dV]NDL-OH), the IC50 turned out to be 600 µM.
Regarding `CC(C)C[C@H](NC(=O)[C@H](CC(=O)O)NC(=O)[C@H](CC(N)=O)NC(=O)[C@@H](NC(=O)[C@@H](NC(=O)[C@@H](C)N)C(C)C)C(C)C)C(=O)O` [dA V V N D L] (H-[dA]VVNDL-OH), the IC50 amounted to 90 µM.
`CC(C)C[C@H](NC(=O)[C@@H](CC(=O)O)NC(=O)[C@H](CC(N)=O)NC(=O)[C@@H](NC(=O)[C@@H](NC(=O)[C@H](C)N)C(C)C)C(C)C)C(=O)O` [A V V N dD L] (H-AVVN[dD]L-OH): the IC50 was determined as 520 µM.
For `CC(C)C[C@H](NC(=O)[C@H](CC(=O)O)NC(=O)[C@H](CC(N)=O)NC(=O)[C@@H](NC(=O)[C@@H](NC(=O)[C@H](C)NC(=O)CNC(=O)[C@H](C)NC(=O)[C@H](N)Cc1ccc(O)cc1)C(C)C)C(C)C)C(=O)O` [dY A G A V V N D L], the IC50 was 40 µM.
Take `CC(C)C[C@H](NC(=O)[C@H](CC(=O)O)NC(=O)[C@H](CC(N)=O)NC(=O)[C@@H](NC(=O)[C@@H](NC(=O)[C@H](C)NC(=O)[C@@H](C)NC(=O)[C@H](C)NC(=O)[C@@H](N)Cc1ccc(O)cc1)C(C)C)C(C)C)C(=O)O` [Y A dA A V V N D L] (H-YA[dA]AVVNDL-OH): the IC50 amounted to 88 µM.

Another assay addresses ribonucleotide reductase enzyme of herpes simplex virus (Human herpesvirus 1, UniProt P08543).
Experiment: not given
Conditions: Nature 321:439-441 and 441-443 (1986); cited from earlier work.
Regarding Tyr Ala Gly Ala Val Val Asn Asp Leu, the “inhibition in vitro of the activity of the enzyme” value is on record as “inhibited”.

A further assay addresses T2, ribonucleotide reductase enzyme of herpes simplex virus (Human herpesvirus 1, UniProt P08543).
T2 sequence (P08543 whole entry, looked up): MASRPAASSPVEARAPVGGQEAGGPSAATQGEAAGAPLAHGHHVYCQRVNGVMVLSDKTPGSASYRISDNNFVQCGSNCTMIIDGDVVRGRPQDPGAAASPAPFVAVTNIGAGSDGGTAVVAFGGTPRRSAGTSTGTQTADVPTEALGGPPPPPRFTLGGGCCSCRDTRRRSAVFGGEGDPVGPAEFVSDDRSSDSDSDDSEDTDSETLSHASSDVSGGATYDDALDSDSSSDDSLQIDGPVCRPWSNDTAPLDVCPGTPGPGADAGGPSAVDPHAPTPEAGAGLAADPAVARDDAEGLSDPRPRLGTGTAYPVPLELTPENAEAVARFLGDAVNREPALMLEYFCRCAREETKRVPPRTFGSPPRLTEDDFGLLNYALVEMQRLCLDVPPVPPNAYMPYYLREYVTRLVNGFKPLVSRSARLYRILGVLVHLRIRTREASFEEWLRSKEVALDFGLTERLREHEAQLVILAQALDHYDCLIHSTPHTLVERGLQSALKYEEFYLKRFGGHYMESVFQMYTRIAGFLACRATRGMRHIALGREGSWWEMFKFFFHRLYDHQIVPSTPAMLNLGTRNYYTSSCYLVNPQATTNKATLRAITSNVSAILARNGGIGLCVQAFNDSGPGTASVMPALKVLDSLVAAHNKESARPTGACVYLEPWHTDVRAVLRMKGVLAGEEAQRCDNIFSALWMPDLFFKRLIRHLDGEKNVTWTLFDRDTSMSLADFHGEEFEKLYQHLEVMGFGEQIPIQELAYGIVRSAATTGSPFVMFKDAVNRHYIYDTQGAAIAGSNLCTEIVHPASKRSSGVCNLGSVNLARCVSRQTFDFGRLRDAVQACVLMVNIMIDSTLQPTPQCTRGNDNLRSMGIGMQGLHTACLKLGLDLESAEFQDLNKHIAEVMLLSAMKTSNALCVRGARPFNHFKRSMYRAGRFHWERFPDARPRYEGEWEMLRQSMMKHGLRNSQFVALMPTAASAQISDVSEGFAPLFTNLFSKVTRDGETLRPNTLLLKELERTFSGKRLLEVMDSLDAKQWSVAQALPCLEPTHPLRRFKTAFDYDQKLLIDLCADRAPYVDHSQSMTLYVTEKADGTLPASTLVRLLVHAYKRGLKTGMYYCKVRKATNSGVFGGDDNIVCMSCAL
Experiment: not given
Conditions: Nature 321:439-441 and 441-443 (1986); cited from earlier work.
With “YGAVVNDL [8-desalanine homolog of the nonapeptide, disclosed by Dutia et al]”, the “inhibition in vitro of the activity of the enzyme” value is reported as “inhibited”.
